In paper PMC9101373, “Design of DNA Intercalators Based on 4-Carboranyl-1,8-Naphthalimides: Investigation of Their DNA-Binding Ability and Anticancer Activity” (International Journal of Molecular Sciences, 2022):
Where “and” joins values, the source holds several entries; their conditions need not be identical. Equal entries are not always repeated.

Experiments:
[1] = test system: HepG2 cells; test: Analysis of 8-oxo-dG in cellular DNA by HPLC-UV-ED; type: cell-based, human; settings: HepG2, 24 h; for [8-oxo-dG ± SD] × 10^6, 8-oxo-dG level in cellular DNA: concentration corresponding to total IC50, control 2.88 ± 0.17
Method: We also estimated 8-oxo-dG levels in DNA since 2-deoxyguanosine is most susceptible to oxidation among nucleosides and might serve as an oxidative DNA damage marker within the cells. […] Both compounds generate much higher oxidative disturbance in DNA than mitonafide, resulting in approximately 4- and 6-fold more 8-oxo-dG residues, respectively.
HepG2 cells (1 × 10^6) were seeded onto flasks (25 cm^2) and cultured for 16 h in the EMEM medium (Corning®) supplemented with 10% FBS (Corning®) and antibiotics (Sigma).Subsequently, the cells were treated for 24 h with the tested compounds at a concentration corresponding to their total IC50 values. Next, the cells were trypsinized, rinsed twice with PBS, and pelleted by centrifugation (200× g, 3 min). Total DNA was isolated from the treated cells and untreated control cells using a Genomic mini DNA isolation kit (A&A Biotechnology, Gdynia, Poland) according to the manufacturer′s protocol. The quality of the total DNA was assessed spectrophotometrically.
DNA (1 μg) was dissolved in sodium acetate buffer (10 μL, 40 mM, pH 5.3) containing ZnCl2 (0.1 mM) and digested with nuclease P1 (3 μg). Samples were incubated for 3 h at 37 °C. Subsequently, Tris–HCl (2 μL, 1 M, pH 8.0), alkaline phosphatase (1 U) were added and incubated for 2 h at 37 °C. All DNA hydrolysates were ultrafiltered using cut-off 10,000 Da filter units.
8-Oxo-dG and dG in hydrolysates were determined using HPLC-UV followed by electrochemical detection and ED (Coulochem III Electrochemical Detector, ESA, Inc., Chelmsford, MA, USA). DNA hydrolysates were chromatographed isocratically using ammonium acetate (50 mM pH 5.3)/methanol (93:7, v/v). Detection of dG was performed at 254 nm. Detection of 8-oxo-dG was performed by the electrochemical detector: guard cell + 400 mV, detector 1: +130 mV (as a screening electrode), detector 2: + 350 mV (as a measuring electrode set to sensitivity of 500 nA/V). All results are expressed as the mean ± SD.
To determine 8-oxo-dG levels, guanosine amount was necessary. The total number of 8-oxo-dG residues in the genome was calculated using the unique formula [54].

[2] = test system: HepG2 cells; test: Apoptosis/necrosis assay by flow cytometry (Annexin V); type: cell-based, human; settings: HepG2, 24 h at total IC50, Annexin V
Method: To investigate whether compounds 54–61 induced apoptosis in HepG2 cells, we incubated the cells with these compounds for 24 h and performed a flow cytometry analysis. The concentration chosen for each compound corresponded to their total IC50 values. After incubation, the cells were stained with Annexin V Alexa Fluor 647 conjugate, which enabled detection of the externalization of phosphatidylserine, one of the earliest indicators of apoptosis. To eliminate the influence of the solvent (DMSO), we also analyzed its ability to induce apoptosis in a volume that corresponded to the highest concentration. […] The other compounds, 57, 58, 59, and 61, could not induce as high apoptosis as those mentioned above. Approximately one-third of cells targeted apoptotic pathways (33.4%, 39.1%, 23.1%, and 37.1%, respectively) when treated with these compounds (Figure 6).
HepG2 cells (3.85 × 10^5) were seeded onto 6-well plates, cultured in supplemented EMEM medium (Corning®) at 37 °C and 5% CO2 saturation, and incubated until 70–80% cell confluency was achieved. Subsequently, the cells were treated for 24 h, with the tested compounds 54–61 were added at a concentration corresponding to their total IC50 values. Next, the cells were detached with trypsin (Corning®) and washed twice with DPBS (1 mL) (Thermo Fisher Scientific, Waltham, MA, USA). In the meantime, annexin-binding buffer (10 mM HEPES, 140 mM NaCl, and 2.5 mM CaCl2, pH 7.4) was prepared. The cells were resuspended in annexin-binding buffer (100 μL per assay) and stained with Alexa Fluor™ 680 annexin V conjugate (ex/em: ~679/702 nm, Thermo Fisher Scientific, Waltham, MA, USA) according to the manufacturer’s protocol (5 μL of the annexin V conjugate was added to each 100 μL of cell suspension) and incubated for 15 min at RT, in the dark. After the incubation period, annexin-binding buffer (400 μL) was added, mixed gently, and the samples were kept on ice during the analysis. The cells were analyzed immediately after staining with […] by Accuri C6 flow cytometer (Becton Dickinson, Franklin Lake, NJ, USA) with excitation at 635 nm. The rate of apoptosis was evaluated immediately by FlowJo software.
Figure 6 Effect of compounds 54 (5.5 µM), 55 (3.4 µM), 56 (12 µM), 57 (3.1 µM), 58 (3.9 µM), 59 (5.4 µM), 60 (31 µM), and 61 (4.8 µM) on cell death in HepG2 cells. The cells were incubated with the tested compounds for 24 h at the concentration corresponding to the total IC50 values. Quantitative flow cytometry analysis was performed to evaluate apoptosis/necrosis induced by compounds after 24 h of treatment. Data are presented as the mean ± SD of three independent experiments. Statistical significance is indicated with asterisks: (ns) p > 0.05, (**) p < 0.01, (***) p < 0.001, and (****) p < 0.0001.

Row | Substance | fold increase in number of 8-oxo-dG residues per 10^6 dG as compared to control [1] | fold more 8-oxo-dG residues than mitonafide [1] | [8-oxo-dG ± SD] × 10^6, 8-oxo-dG level in cellular DNA [1] [per 10^6 dG] | apoptosis rate, apoptotic cells [2] [%]
1 | N-[2-N-Pyrrolidinyl)ethyl]-4-[(6-(2-(1,7-dicarba-closo-dodecaborane-1-yl)-ethylamino)hexyl)amino]-1,8-naphthalimide [Compound 61] | > 43 fold | 4 fold and ~6 fold | 123.92 ± 2.59 | 37.1
2 | N-[2-(Dimethylamino)ethyl]-4-[(2-(2-(1,7-dicarba-closo-dodecaborane-1-yl)-ethylamino)ethyl)amino]-1,8-naphthalimide [Compound 55] | – | – | 74.85 ± 1.38 | 48.2
3 | N-[2-(Dimethylamino)ethyl]-4-[(6-(2-(1,7-dicarba-closo-dodecaborane-1-yl)-ethylamino)hexyl)amino]-1,8-naphthalimide [Compound 59] | – | – | 81.64 ± 0.67 | 23.1
4 | N-[2-(Pyrrolidin-1-yl)ethyl]-4-[(2-(2-(1,7-dicarba-closo-dodecaborane-1-yl)-ethylamino)ethyl)amino]-1,8-naphthalimide [Compound 57] | – | – | 57.54 ± 0.73 | 33.4
5 | N-[2-(Dimethylamino)ethyl]-4-[(6-(2-(1,2-dicarba-closo-dodecaborane-1-yl)-ethylamino)hexyl)amino]-1,8-naphthalimide [Compound 58] | – | – | 96.58 ± 0.56 | 39.1
6 | N-[2-(Pyrrolidin-1-yl)ethyl]-4-[(2-(2-(1,2-dicarba-closo-dodecaborane-1-yl)-ethylamino)ethyl)amino]-1,8-naphthalimide [Compound 56] | – | – | 52.31 ± 0.51 | 77.4
7 | N-[2-N-Pyrrolidinyl)ethyl]-4-[(6-(2-(1,2-dicarba-closo-dodecaborane-1-yl)-ethylamino)hexyl)amino]-1,8-naphthalimide [Compound 60] | over 57 fold | approximately 4 fold | 164.35 ± 6.39 | 46.9
8 | N-[2-(Dimethylamino)ethyl]-4-[(2-(2-(1,2-dicarba-closo-dodecaborane-1-yl)-ethylamino)ethyl)amino]-1,8-naphthalimide [Compound 54] | – | – | 43.17 ± 0.75 | 44.3
